Results from patent US6642392B1 (priority 1997, dated 2003).

Key:
Assay type in all cases: in vivo
[1] = system: Eiysiphe graminis f. sp. tritici; assay: Test A: wheat powdery mildew, preventive spray on wheat seedlings; details: wheat powdery mildew; 100 = 100% disease control, 0 = no control relative to controls; unmarked entries (standard test concentration)
Method in brief: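 Compounds (3% acetone, 250 ppm Trem 014) sprayed to run-off on wheat seedlings, inoculated next day with spore dust. Incubated 7 days at 20° C before disease rating, 0–100% control relative to untreated controls.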

Botrytis cinerea = assay: Test E: gray mold, preventive spray on cucumber seedlings; details: gray mold on cucumber; 100 = 100% disease control, 0 = no control; unmarked entries (standard test concentration)
Method in brief: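 Compounds in 3% acetone were suspended with 250 ppm Trem 014 surfactant and sprayed to run-off on cucumber seedlings. B. cinerea spores were inoculated next day, then 48 h saturated humidity at 20° C and 5 days at 20° C. Disease control rated 0–100% versus controls.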

Puccinia recondita = assay: Test B: wheat leaf rust, preventive spray on wheat seedlings; details: wheat leaf rust; 100 = 100% disease control, 0 = no control; unmarked entries (standard test concentration)
Method in brief: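 Wheat seedlings were sprayed to run-off with compound (3% acetone, 250 ppm Trem 014), then inoculated with P. recondita spores the next day. They were held 24 h saturated at 20 °C, then 6 days at 20 °C. Ratings are 0–100% disease control versus controls.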

Pyricularia oryzae = details: rice blast; 100 = 100% disease control, 0 = no control; unmarked entries (standard test concentration)
Phytophthora infestans = details: tomato late blight; 100 = 100% disease control, 0 = no control; unmarked entries (standard test concentration)

Row | Structure (SMILES) | Test A disease control rating [1] [%] | Test E disease control rating (Botrytis cinerea) [%] | Test B disease control rating (Puccinia recondita) [%] | Test C disease control rating (Pyricularia oryzae) [%] | Test D disease control rating (Phytophthora infestans) [%]
1 | C[C@H](COc1cccc(C(F)(F)F)c1)NC(=O)C(C#N)C(C)(C)C (single isomer, unassigned) [18b] | 77 | 0 | 0 | 94 | 0
2 | C[C@H](COc1cccc(F)c1F)NC(=O)C(C#N)C(C)(C)C (single isomer, unassigned) [26a] | 38 | 0 | 28 | 97 | 51
3 | C[C@H](COc1cccc(F)c1F)NC(=O)C(C#N)C(C)(C)C (single isomer, unassigned) [26b] | 38 | 0 | 68 | 100 | 81
4 | C[C@H](COc1ccc(F)cc1F)NC(=O)C(C#N)C(C)(C)C (single isomer, unassigned) [27a] | 38 | 0 | 0 | 100 | 81
5 | C[C@H](COc1ccc(F)cc1F)NC(=O)C(C#N)C(C)(C)C (single isomer, unassigned) [27b] | 91 | 0 | 0 | 100 | 0
6 | C[C@H](COc1cc(F)ccc1F)NC(=O)C(C#N)C(C)(C)C (single isomer, unassigned) [28a] | 38 | 0 | 28 | 100 | 68
7 | C[C@H](COc1cc(F)ccc1F)NC(=O)C(C#N)C(C)(C)C (single isomer, unassigned) [28b] | 86 | 0 | 28 | 100 | 96
8 | C[C@H](COc1ccc(F)c(F)c1)NC(=O)C(C#N)C(C)(C)C (single isomer, unassigned) [30a] | 0 | 0 | 0 | 100 | 0
9 | C[C@H](COc1ccc(F)c(F)c1)NC(=O)C(C#N)C(C)(C)C (single isomer, unassigned) [30b] | 77 | 0 | 27 | 97 | 0
10 | C[C@H](COc1cccc(Cl)c1Cl)NC(=O)C(C#N)C(C)(C)C (single isomer, unassigned) [31a] | 62 | 0 | 68 | 74 | 51
11 | C[C@H](COc1cccc(Cl)c1Cl)NC(=O)C(C#N)C(C)(C)C (single isomer, unassigned) [31b] | 0 | 0 | 0 | 94 | 0
12 | C[C@H](COc1ccc(Cl)cc1Cl)NC(=O)C(C#N)C(C)(C)C (single isomer, unassigned) [32a] | 0 | 0 | 27 | 91 | 0
13 | C[C@H](COc1ccc(Cl)cc1Cl)NC(=O)C(C#N)C(C)(C)C (single isomer, unassigned) [32b] | 0 | 0 | 27 | 94 | 23
14 | C[C@H](COc1cc(Cl)ccc1Cl)NC(=O)C(C#N)C(C)(C)C (single isomer, unassigned) [33a] | 0 | 0 | 0 | 97 | 0
15 | C[C@H](COc1cc(Cl)ccc1Cl)NC(=O)C(C#N)C(C)(C)C (single isomer, unassigned) [33b] | 0 | 0 | 67 | 100 | 80
16 | C[C@H](COc1cc(Cl)cc(Cl)c1)NC(=O)C(C#N)C(C)(C)C (single isomer, unassigned) [35a] | 0 | 0 | 0 | 74 | 80
17 | C[C@H](COc1cc(Cl)cc(Cl)c1)NC(=O)C(C#N)C(C)(C)C (single isomer, unassigned) [35b] | 37 | 0 | 0 | 91 | 0
18 | C[C@H](COc1ccc(Cl)cc1F)NC(=O)C(C#N)C(C)(C)C (single isomer, unassigned) [36a] | 0 | 0 | 27 | 99 | 89
19 | C[C@H](COc1ccc(Cl)cc1F)NC(=O)C(C#N)C(C)(C)C (single isomer, unassigned) [36b] | 62 | 0 | 27 | 100 | 80
20 | C[C@H](COc1ccc(F)cc1Cl)NC(=O)C(C#N)C(C)(C)C (single isomer, unassigned) [37a] | 62 | 0 | 68 | 100 | 68
21 | C[C@H](COc1ccc(F)cc1Cl)NC(=O)C(C#N)C(C)(C)C (single isomer, unassigned) [37b] | 77 | 0 | 68 | 99 | 96
22 | C[C@H](COc1ccc(F)cc1Br)NC(=O)C(C#N)C(C)(C)C (single isomer, unassigned) [165a] | 86 | 86 | 0 | 74 | 23
23 | C[C@H](COc1ccc(F)cc1Br)NC(=O)C(C#N)C(C)(C)C (single isomer, unassigned) [165b] | 95 | 95 | 0 | 94 | 23
24 | C[C@H](COc1cc(F)ccc1Br)NC(=O)C(C#N)C(C)(C)C (single isomer, unassigned) [166a] | 0 | 58 | 0 | 99 | 76
